Our source for the IC50 and mode of inhibition values is publication PMC8179437 (Chemical Science, 2021).

Each structure is given as a SMILES string.

The target of one assay is T1, TDP1 (Homo sapiens, UniProt Q9NUW8). Description: TDP1 gel-based in vitro assay. Type of assay: biochemical. The note with it: Table 1 and main text.
T1 sequence (Q9NUW8 whole entry): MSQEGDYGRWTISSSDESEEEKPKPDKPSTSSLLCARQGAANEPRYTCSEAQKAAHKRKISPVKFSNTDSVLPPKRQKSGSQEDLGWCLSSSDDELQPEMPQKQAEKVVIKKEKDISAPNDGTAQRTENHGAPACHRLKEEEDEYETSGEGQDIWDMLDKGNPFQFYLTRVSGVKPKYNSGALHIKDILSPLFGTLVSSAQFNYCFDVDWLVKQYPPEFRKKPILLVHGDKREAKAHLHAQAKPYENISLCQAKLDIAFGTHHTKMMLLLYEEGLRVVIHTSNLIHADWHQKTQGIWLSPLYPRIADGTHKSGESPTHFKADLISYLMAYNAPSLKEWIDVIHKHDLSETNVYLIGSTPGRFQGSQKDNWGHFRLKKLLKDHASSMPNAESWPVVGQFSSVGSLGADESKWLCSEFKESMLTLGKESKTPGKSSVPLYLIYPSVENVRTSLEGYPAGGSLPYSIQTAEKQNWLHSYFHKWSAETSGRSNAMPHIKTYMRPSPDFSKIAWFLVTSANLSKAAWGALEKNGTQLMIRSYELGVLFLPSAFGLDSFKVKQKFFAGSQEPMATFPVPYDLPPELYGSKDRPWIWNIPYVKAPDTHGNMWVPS
The IC50 is the concentration needed to halve the response being measured. Read a high IC50 as a need for much substance. In turn, `c1ccc(Nc2c(-c3ccccc3)nc3ccccn23)cc1` [Compound 6t, N,2-Diphenylimidazo[1,2-a]pyridin-3-amine] returned an IC50 above 100 µM.

For `O=C(O)c1ccc(Nc2c(-c3ccc(O)cc3)nc3ccccn23)cc1` [Compound 8f, 4-((2-(4-Hydroxyphenyl)imidazo[1,2-a]pyridin-3-yl)amino)benzoic acid], the IC50 was above 100 µM.

Compound `O=C(O)c1ccc(Nc2c(-c3ccc(C(=O)O)cc3)nc3ccccn23)cc1` [Compound 8h, 4-(3-((4-Carboxyphenyl)amino)imidazo[1,2-a]pyridin-2-yl)benzoic acid] returned a concentration for half-maximal inhibition (IC50) above 100 µM.

In turn, `CS(=O)(=O)c1ccc2nc(-c3ccccc3)c(Nc3ccc(C(=O)O)cc3)n2c1` [Compound 8q, 4-((6-(Methylsulfonyl)-2-phenylimidazo[1,2-a]pyridin-3-yl)amino)benzoic acid] gave an IC50 of 1.8 µM.

As to `CS(=O)(=O)c1ccc2nc(-c3ccc(-c4ccccc4)cc3)c(Nc3ccc(C(=O)O)cc3)n2c1` [Compound 8r, 4-((2-([1,1'-Biphenyl]-4-yl)-6-(methylsulfonyl)imidazo[1,2-a]pyridin-3-yl)amino)benzoic acid], the IC50 amounted to 9.95 µM.

Compound `O=C(O)c1ccc(Cn2c(-c3ccccc3)nc3ccccc32)cc1` [Compound 9a, 4-((2-Phenyl-1H-benzo[d]imidazol-1-yl)methyl)benzoic acid] registered an IC50 above 100 µM.

Consider `O=C(O)c1ccc(Cn2c(-c3ccccc3)cc3ccccc32)cc1` [Compound 9b, 4-((2-Phenyl-1H-indol-1-yl)methyl)benzoic acid], for which the IC50 was above 100 µM.

A further assay deals with T1, TDP1. As to the kind of experiment: TDP1 Lineweaver–Burk analysis. Type of assay: biochemical.
Conditions: not given
Take `O=C(O)c1ccc(Nc2c(-c3ccccc3)nc3cnccn23)cc1` [Compound 7b, 4-((2-Phenylimidazo[1,2-a]pyrazin-3-yl)amino)benzoic acid]: the mode of inhibition entry was “competitive”.

Consider `O=C(O)c1ccc(Nc2c(-c3ccccc3)nc3ccccn23)cc1` [Compound 8a, 4-((2-Phenylimidazo[1,2-a]pyridin-3-yl)amino)benzoic acid], for which the mode of inhibition entry is recorded as “competitive”.

`O=C(O)c1ccc(Nc2c(-c3ccccc3)nc3cnccn23)cc1C(=O)O` [Compound 10a, 4-((2-Phenylimidazo[1,2-a]pyrazin-3-yl)amino)phthalic acid]: the mode of inhibition result was “competitive”.

In the case of `O=C(O)c1ccc(Nc2c(-c3ccccc3)nc3ccccn23)cc1C(=O)O` [Compound 10b, 4-((2-Phenylimidazo[1,2-a]pyridin-3-yl)amino)phthalic acid], the mode of inhibition entry was “competitive”.
